# According to US20090137662A1, “SYNERGY OF DOPAMINE D2 AND ADENOSINE A2 RECEPTORS ACTIVATES PKA SIGNALING VIA BETA/GAMMA DIMERS” (The Regents of the University of California, priority 2002, published 2009):
# Structures can show the parent of a compound that is named as a salt. Where two headings read alike, the source gives them in different places.
# Key:
# ε-PKC [1] = experiment: Translocation of ε-PKC in NG108-15 and CHO cells expressing the applicable receptor; type: cell-based
# Source text: (§1) To determine whether addictive drugs other than ethanol would cause translocation of some proteins, we examine the effects of various receptor agonists and antagonists on ε-PKC δ-PKC or PKA Cα translocation in NG108-15 and CHO cells expressing the applicable receptor. […] Adenosine is also implicated in some behavioral effects of ethanol.
# (§2) The mechanisms underlying ethanol- and dopamine-mediated translocation of ε-PKC and δ-PKC were studied by altering the activity of various molecules that might be in the pathways leading to translocation.
# PKA Cα [2] = type: cell-based; settings: for translocation of PKA-Cα after co-incubation with NPA: 10 minute co-incubation with 10^−10M NPA, 10^−11M DADLE or 2×10^−10M methanindamide
# Source text: as §1
# [3] = system: CRE-regulated luciferase expression; experiment: CRE-luciferase reporter in NG108-15 cells; type: cell-based
# Procedure: Luciferase is used as a reporter gene in a transient expression system to identify substances that alter the effects of ethanol on CRE-regulated gene expression. Cells are cultured as described in Dohrman et al., Proc Natl Acad Sci USA (1996) 93:10217-10221, and are transfected using Effectene (Qiagene) as described by the manufacturers. Twenty-four hours after transfection the cells are treated with 200 mM ethanol for 30 min. to 36 hr. Luciferase activity is measured using Luciferase Assay System (Promega) and normalized to β-galactosidase activity.
# (§3) NG108-15 cells were co-transfected with a fusion construct containing the cAMP response element (CRE) fused to luciferase as a reporter gene (Stratagene).
# Since the ERK/MAPK pathway may regulate CREB phosphorylation and CRE-mediated gene expression, NG108-15 cells having the luciferase construct were co-incubated with 200 mM ethanol and a MEK inhibitor (PD98059 (2 nM, Calbiochem, San Diego, Calif.) or U0126 (1 μM, Calbiochem, San Diego, Calif.)) or a dominant negative MEK construct (DN-MEK, Dr. R. Seger) in which Lys-97 was replaced by alanine.
# as §3
# PKA Cα [4] = experiment: PKA Cα translocation in primary cultures of hippocampal neurons; settings: for effect of agent alone on PKA Cα localization: data not shown
# ε-PKC [5] = type: cell-based
# Procedure: NG 108-15 or CHO cells were pre-incubated in the presence or absence of the indicated inhibitor for 30 min. (except for GF which was pre-incubated for 1 hour), then further incubated in the absence or presence of 200 mM ethanol for 30 min.
# ε-PKC [6] = type: cell-based; settings: naive NG108-15 cells; 100 nM PMA, 10 min.
# Procedure: (§4) Naive NG108-15 cells were, therefore, incubated in for ten (10) min. in 100 nM PMA, to then determine localization of δ-PKC and ε-PKC.
# δ-PKC [7] = type: cell-based; settings: naive NG108-15 cells; 100 nM PMA, 10 min.
# Procedure: as §4
# [8] = system: CREB (GAL4-CREB fusion, luciferase reporter); experiment: GAL4-CREB / GAL4-luciferase reporter in NG108-15 cells; type: cell-based; settings: 20 μM Rp-cAMPS 2 h, 5 μM KN-62 or 50 nM GF 30 min pretreatment, then ethanol 14 hours
# Procedure: Cells are cultured as described in Dohrman et al., Proc Natl Acad Sci USA (1996) 93:10217-10221, and are transfected using Effectene (Qiagene) as described by the manufacturers. […] Luciferase activity is measured using Luciferase Assay System (Promega) and normalized to β-galactosidase activity.
# NG108-15 cells are co-transfected with a GAL4-CREB fusion construct and with a second construct containing the DNA binding site of GAL4 fused to luciferase as a reporter gene. […] The ethanol-induced increase in luciferase activity induced was inhibited by Rp-cAMPS but not by the CaMK and PKC inhibitors KN-62 and GF, respectively (FIGS. 15 and 16B).
# δ-PKC [9] = experiment: Translocation of δ-PKC in NG108-15 and CHO cells expressing the applicable receptor; type: cell-based
# Source text: as §1, §2
# [10] = system: CRE-mediated gene expression; experiment: CRE-luciferase reporter assay in NG108-15/D2 cells; settings: NG108-15/D2 cells; spiperone, Rp-cAMPS or PTX alone
# Procedure: Cells were transiently transfected with a CRE-luciferase reporter construct to measure gene expression via endogenous CRE-binding protein (CREB).
# NG108-15/D2 cells were plated at 1×10^6 cells/100 mm plate, grown in defined medium for 3 days, and then transfected with 10 μg of CRE-luciferase construct using the LipofectAMINE reagent (GIBCOL) as recommended by the manufacturer. Cells were cultured for 24 h post transfection before being seeded into 12-well plates. […] Cells were then washed with PBS and cultured for a total of 5 h. Cell extracts were prepared and luciferase activity measured with a luciferase assay system (Promega, Madison, Wis.), using a Rosys Anthos Lucy2 microplate luminometer (Anthos Labtec Instruments, Austria). Results are expressed as percent increase over control. Data represent three or more separate experiments from triplet wells. Luciferase activities were normalized for transfection efficiency determined in cells transfected in parallel with pCMVβgalactosidase. β-galactosidase activity was measured using a kit from Strategene (La Jolla, Calif.).
# [11] = system: PKA subunits (RIα, RIIα, RIβ, Cα, Cβ, Cγ); experiment: Immunocytochemical localization of PKA subunits in neutrophils; type: cell-based, human
# Source text: Methods 5:249-252 (1974). […] This step removed contaminating platelets from the lymphocyte fraction. […] Images were further analyzed using NIH Image.
# [12] = NG108-15 cells expressing the applicable receptor, 200 mM Ethanol, 50 nM NPA, 1 μM D-ala-D-leu-enkephalin, 2 μM R(+) methanindamide, 20 μM Carbachol, 10^−5 M UK14304, 20 nM CCPA, 100 nM CGS-21680 HCl, None: Perinucleus
# [13] = primary hippocampal neurons, 50 nM NPA, spiperone 10 μM, DPCPX 100 nM, DMPX 10 μM 30 min, Rp-cAMPS 20 μM 1.5 hours, PTX 50 ng/ml or Ad5QEHA overnight
# [14] = CHO cells expressing the dopamine D2 receptor
# [15] = NG108-15 cells expressing the dopamine D2 receptor
# [16] = NG108-15 cells, H-89 10 μM, PD98059 2 nM, U0126 1 μM, DN-RIα, DN-MEK, CREB-M1 constructs co-transfected
# [17] = PKA agonist Sp-cAMPS, or forskolin or PGE1 to increase cAMP levels
# [18] = 10 μM spiperone or 10 μM BW 1434 + 200 mM ethanol
smiles,measurement,setting,value
"OC[C@H]1O[C@@H](n2cnc3c(NC4CCCC4)nc(Cl)nc32)[C@H](O)[C@@H]1O [CCPA, 2-chloro-N^6-cyclopentyladenosine]",Predominant Localization of ε-PKC (agent alone),ε-PKC [1]; [12],Cytoplasm
CCNC(=O)[C@H]1O[C@@H](n2cnc3c(N)nc(NCCc4ccc(CCC(=O)O)cc4)nc32)[C@H](O)[C@@H]1O [CGS-21680 HCl],Predominant Localization of ε-PKC (agent alone),ε-PKC [1]; [12],Cytoplasm
C[N+](C)(C)CCOC(N)=O [Carbachol],Predominant Localization of ε-PKC (agent alone),ε-PKC [1]; [12],Perinucleus
"CC(C)C[C@@H](NC(=O)[C@H](Cc1ccccc1)NC(=O)CNC(=O)[C@@H](C)NC(=O)[C@@H](N)Cc1ccc(O)cc1)C(=O)O [DADLE, enkephalin (D-ala2,D-leu5)]",translocation of PKA-Cα after co-incubation with ethanol,PKA Cα [2],Synergistic translocation
same,translocation of PKA-Cα after co-incubation with NPA,PKA Cα [2],Synergistic translocation
same,translocation of PKA-Cα after co-incubation of δ-opioid and cannabinoid,PKA Cα [2]; 10 minute coincubation of 10^−11M DADLE and 2×10^−10M methanindamide,did not result in synergistic translocation
same,increase in luciferase expression,"[3]; NG108-15 cells, 10 nM DADLE, four hours",40%
same,Predominant Localization of ε-PKC (agent alone),ε-PKC [1],Cytoplasm
C#CCn1c(=O)c2c(ncn2C)n(C)c1=O [DMPX],effect on NPA-induced PKA Cα translocation,PKA Cα [4]; [13],do not affect
same,effect of agent alone on PKA Cα localization,PKA Cα [4]; primary hippocampal neurons,no effect
CCCn1c(=O)c2[nH]c(C3CCCC3)nc2n(CCC)c1=O [DPCPX],effect on NPA-induced PKA Cα translocation,PKA Cα [4],do not affect
same,effect on ethanol-induced PKA Cα translocation,PKA Cα [4],prevents
same,effect of agent alone on PKA Cα localization,PKA Cα [4]; primary hippocampal neurons,no effect
CCCCCCCCCCCCCCCCCCOCC(COP(=O)([O-])OCC[N+](C)(C)C)OC (centres unmarked) [Et-18-OCH3],Predominant ε-PKC Localization (ethanol + inhibitor),ε-PKC [5],Perinucleus
same,inhibition of ethanol-induced translocation of ε-PKC,ε-PKC [1]; [14],87%
same,inhibition of ethanol-induced translocation of ε-PKC,ε-PKC [1]; [15],96%
"CN(C)CCCn1cc(C2=C(c3c[nH]c4ccccc34)C(=O)NC2=O)c2ccccc21 [GF, Bisindoylmaleimide I]",Predominant ε-PKC Localization (ethanol + inhibitor),ε-PKC [5],Perinucleus
O=S(=O)(NCCNC/C=C/c1ccc(Br)cc1)c1cccc2cnccc12 [H-89],effect on the increase in luciferase expression after 14 hours of exposure to 200 mM ethanol,[3]; [16],inhibit the increase in luciferase expression
"Cl.c1ccc([C@@H]2CCC[C@@H]2NC2=NCCCCCCCCCCC2)cc1 [MDL 12, 330A Hydrochloride]",Predominant ε-PKC Localization (ethanol + inhibitor),ε-PKC [5],Perinucleus
COc1cccc(-c2cc(=O)c3ccccc3o2)c1N [PD98059],effect on the increase in luciferase expression after 14 hours of exposure to 200 mM ethanol,[3]; [16],eliminated the increase in luciferase activity
"CCCCCCCCCCCCCC(=O)O[C@@H]1[C@@H](C)[C@@]2(O)[C@@H](C=C(CO)C[C@]3(O)C(=O)C(C)=C[C@@H]23)[C@@H]2C(C)(C)[C@]12OC(C)=O [PMA, phorbol myristate acetate]",localization of ε-PKC on activation by PMA,ε-PKC [6],nuclear and perinuclear localization
same,localization of δ-PKC on activation by PMA,δ-PKC [7],mainly translocated to the perinucleus
CCCCC/C=C\C/C=C\C/C=C\C/C=C\CCCC(=O)N[C@H](C)CO [R(+) methanindamide],translocation of PKA-Cα after co-incubation with ethanol,PKA Cα [2],Synergistic translocation
same,translocation of PKA-Cα after co-incubation with NPA,PKA Cα [2],Synergistic translocation
same,Predominant Localization of ε-PKC (agent alone),ε-PKC [1],Cytoplasm
Nc1ncnc2c1ncn2[C@@H]1O[C@@H]2CO[P@@](O)(=S)O[C@H]2[C@H]1O [Rp-cAMPS],effect on NPA-induced PKA Cα translocation,PKA Cα [4]; [13],prevent
same,effect of agent alone on PKA Cα localization,PKA Cα [4]; primary hippocampal neurons,no effect
same,effect on the ethanol-induced increase in luciferase activity (GAL4-CREB / GAL4-luciferase),[8],inhibited
same,Predominant ε-PKC Localization (ethanol + inhibitor),ε-PKC [5],Perinucleus
same,effect on NPA-induced translocation of δ-PKC,δ-PKC [9],did not affect
same,effect on ethanol-induced translocation of δ-PKC,δ-PKC [9],did not affect
same,effect on early (4 h) and late (14 h) phases of ethanol-induced increases in luciferase expression,"[3]; NG108-15 cells, 200 mM ethanol co-incubated with Rp-cAMPS 20 μM",completely inhibited both the early and late phases
same,effect on NPA-induced translocation of ε-PKC,ε-PKC [1],blocked
same,effect on ethanol-induced translocation of ε-PKC,ε-PKC [1],blocked
same,effect of agent alone on luciferase activity / gene expression,[10],without effect
Nc1ncnc2c1ncn2[C@@H]1O[C@@H]2COP(O)(=S)O[C@H]2[C@H]1O (some centres unmarked) [Sp-cAMPS],translocation of δ PKC on activation of PKA,δ-PKC [9]; [17],did not induce translocation
same,translocation of ε PKC on activation of PKA,ε-PKC [1]; [17],translocate to the cytoplasm
N#CC(=C(/N)Sc1ccccc1N)/C(C#N)=C(\N)Sc1ccccc1N [U0126],effect on the increase in luciferase expression after 14 hours of exposure to 200 mM ethanol,[3],eliminated the increase in luciferase activity
COc1ccc2c(c1)CC[C@@H]1[C@@H]2CC[C@]2(C)[C@@H](NCCCCCCN3C(=O)C=CC3=O)CC[C@@H]12 [U 73122],Predominant ε-PKC Localization (ethanol + inhibitor),ε-PKC [5],Perinucleus
same,inhibition of ethanol-induced translocation of ε-PKC,ε-PKC [1]; [14],87%
same,inhibition of ethanol-induced translocation of ε-PKC,ε-PKC [1]; [15],84%
Brc1c(NC2=NCCN2)ccc2nccnc12 [UK14304],Predominant Localization of ε-PKC (agent alone),ε-PKC [1]; [12],Perinucleus
C=C[C@@]1(C)CC(=O)[C@]2(O)[C@@]3(C)[C@@H](O)CCC(C)(C)[C@@H]3[C@H](O)[C@H](OC(C)=O)[C@@]2(C)O1 [forskolin],"effect on localization of the catalytic subunits of PKA (Cα, Cβ, Cγ)","[11]; neutrophils from non-alcoholics, 200 mM ethanol or 100 nM forskolin",no effect
same,effect on the localization of RIIα,"[11]; neutrophils, ethanol or forskolin",no effect
O=C(CCCN1CCC2(CC1)C(=O)NCN2c1ccccc1)c1ccc(F)cc1 [spiperone],effect on NPA-induced PKA Cα translocation,PKA Cα [4]; [13],blocks
same,effect of agent alone on PKA Cα localization,PKA Cα [4]; primary hippocampal neurons,no effect
same,effect on NPA-induced translocation of δ-PKC,δ-PKC [9],blocked
same,effect on ethanol-induced translocation of δ-PKC,δ-PKC [9],no effect
same,Predominant Localization of δ-PKC (antagonist + NPA),δ-PKC [9]; 10 μM spiperone + 50 nM NPA,Golgi
same,Predominant Localization of δ-PKC (antagonist + ethanol),δ-PKC [9]; [18],Perinucleus &
same,effect on NPA-induced translocation of PKA Cα,PKA Cα [2],blocked
same,effect on ethanol-induced translocation of PKA Cα,PKA Cα [2],no effect
same,Predominant Localization of PKA Cα (antagonist + NPA),PKA Cα [2]; 10 μM spiperone + 50 nM NPA,Golgi
same,Predominant Localization of PKA Cα (antagonist + ethanol),PKA Cα [2]; 10 μM spiperone + 200 mM ethanol,Nucleus &
same,effect on NPA-induced translocation of ε-PKC,ε-PKC [1],blocked
same,effect on ethanol-induced translocation of ε-PKC,ε-PKC [1],no effect
same,Predominant Localization of ε-PKC (antagonist + NPA),ε-PKC [1]; 10 μM spiperone + 50 nM NPA,Perinucleus
same,Predominant Localization of ε-PKC (antagonist + ethanol),ε-PKC [1]; [18],Cytoplasm
same,effect of agent alone on luciferase activity / gene expression,[10],without effect
